In ChEMBL document CHEMBL4673200, “Hydride-induced Meisenheimer complex formation reflects activity of nitro aromatic anti-tuberculosis compounds” (RSC Med Chem, 2021) one finds inhibition, MIC and IC50 data, which are given here for 24 compounds.

Structures are written as SMILES. ≈ marks a conversion by molar mass, not a printed value. Calls of active or inactive are those of the source. The rule behind the calls is not given here.

Experiment [1] concerns the target T1, Decaprenylphosphoryl-beta-D-ribose oxidase (Mycobacterium tuberculosis (strain ATCC 25618 / H37Rv)) (UniProt P9WJF1).
T1 sequence (whole entry): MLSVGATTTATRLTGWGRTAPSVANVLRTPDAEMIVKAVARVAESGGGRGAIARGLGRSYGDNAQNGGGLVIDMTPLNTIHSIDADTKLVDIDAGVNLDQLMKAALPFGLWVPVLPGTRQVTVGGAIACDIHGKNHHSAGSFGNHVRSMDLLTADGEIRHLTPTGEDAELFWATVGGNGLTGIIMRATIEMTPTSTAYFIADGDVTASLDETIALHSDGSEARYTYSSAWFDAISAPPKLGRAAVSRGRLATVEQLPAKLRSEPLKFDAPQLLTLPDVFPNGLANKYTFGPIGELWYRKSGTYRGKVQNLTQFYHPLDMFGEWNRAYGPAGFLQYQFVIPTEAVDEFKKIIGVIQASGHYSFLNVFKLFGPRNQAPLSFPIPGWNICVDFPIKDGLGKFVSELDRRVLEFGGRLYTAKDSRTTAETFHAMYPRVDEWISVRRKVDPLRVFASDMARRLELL
Briefly: Inhibition of Mycobacterium tuberculosis H37Rv DprE1 at 100 times of MIC incubated for 24 hrs by [14C]-acetate radioligand based thin layer chromatography.

Experiment [2] has as its system Mycobacterium tuberculosis. Description: Antitubercular activity against Mycobacterium tuberculosis H37Rv ATCC 27294 cultured in 7H12 media assessed as reduction in bacterial growth incubated for 7 days by resazurin dye fluorescence based assay. In kind it is functional. To be noted: H37Rv ATCC 27294, 168 h, time 7 day.
The subject of experiment [3] is Mycobacterium tuberculosis. Description: Antitubercular activity against Mycobacterium tuberculosis H37Rv ATCC 27294 cultured in GAS media assessed as reduction in bacterial growth incubated for 7 days by resazurin dye fluorescence based assay. It counts as functional. The note with it: H37Rv ATCC 27294, 168 h, time 7 day. Background: Alamar Blue is a resazurin reagent that responds to reducing activity.

Experiment [4] relates to Vero. Description: Cytotoxicity against African green monkey Vero cells assessed by reduction in cell viability incubated for 72 hrs by resazurin dye fluorescence based assay. The note with it: Chlorocebus sabaeus.
In experiment [5] the test system is Mycolicibacterium vaccae. Briefly: Antitubercular activity against Mycobacterium vaccae assessed as reduction in bacterial growth incubated for 42 hrs by broth microdilution assay. In kind it is functional.
Experiment [6] concerns Mycolicibacterium aurum. Briefly: Antitubercular activity against Mycobacterium aurum assessed as reduction in bacterial growth incubated for 42 hrs by broth microdilution assay. It counts as functional. (Dilution methods test growth across graded concentrations, often in twofold steps.)
The target in experiment [7] is T1, Decaprenylphosphoryl-beta-D-ribose oxidase (Mycobacterium tuberculosis (strain ATCC 25618 / H37Rv)). Description: Inhibition of reactivation of Mycobacterium tuberculosis H37Rv DprE1 at 100 times of MIC incubated for 24 hrs by [14C]-acetate radioligand based thin layer chromatography.

`O=c1nc(N2CCN(CC3CCCCC3)CC2)sc2c([N+](=O)[O-])cc(C(F)(F)F)cc12`: the inhibition entry in experiment [1] is “Active”.
In general, MIC refers to the least concentration at which growth counts as inhibited. By IC50 is commonly meant the concentration that inhibits the measured activity by half. For `CC(Nc1ccc([N+](=O)[O-])cc1C#N)c1ccc(Cl)cc1` (stereo not given), the values for the minimal inhibitory concentration (MIC) in experiment [2] and in experiment [3] were > 5 µM and 5 µM (≈ 1.51 µg/mL), respectively. In experiment [4], this compound displayed an IC50 of 29 µM.
Take `NC(=O)c1sc2c([N+](=O)[O-])cc(C(F)(F)F)cc2[n+]1[O-]` [CYCLAPOLIN 9]: the minimum inhibitory concentration (MIC) in experiment [2] was found to be 1.2 µM (≈ 0.369 µg/mL); in experiment [3] it was 2.19 µM (≈ 0.673 µg/mL).
Turning to `COc1ccc(CNc2ccc([N+](=O)[O-])cc2C#N)cc1`, the minimal inhibitory concentration (MIC) in experiment [2] and in experiment [3] was > 5 µM in each case. Also, the IC50 in experiment [4] was > 100 µM.
Regarding `O=C(NCc1ccc2c(c1)CCO2)c1sc2c([N+](=O)[O-])cc(C(F)(F)F)cc2[n+]1[O-]`, the MIC in experiment [5] was < 0.001 µM; in experiment [2], 0.01 µM (≈ 0.00439 µg/mL); in experiment [6] it was > 1 µM; in experiment [3] it was < 0.002 µM. The IC50 in experiment [4] is > 100 µM.
With `N#Cc1cc([N+](=O)[O-])ccc1Nc1ccc(OC2CCNCC2)cc1`, the MIC in experiment [2] and in experiment [3] was > 5 µM each time. In addition, the IC50 in experiment [4] is > 100 µM.
As for `N#Cc1cc([N+](=O)[O-])ccc1-n1cnc2c(N)ncnc21`, the MIC in experiment [2] and in experiment [3] was > 5 µM each time. In addition, in experiment [4], the IC50 is > 100 µM.
With `C[C@H]1COC2(CCN(c3nc(=O)c4cc(C(F)(F)F)cc([N+](=O)[O-])c4s3)CC2)O1` [BTZ-043], the minimal inhibitory concentration (MIC) in experiment [5] is < 0.001 µM; in experiment [2] it was < 0.004 µM; in experiment [6], > 1 µM; in experiment [3], < 0.004 µM. Moreover, the inhibition entry in experiment [1] is “Active”. Moreover, the half-inhibitory concentration (IC50) in experiment [4] was > 100 µM.
As to `CCc1nc2ccc(Cl)cn2c1C(=O)NCc1ccc(N2CCC(c3ccc(OC(F)(F)F)cc3)CC2)cc1` [TELACEBEC], the minimal inhibitory concentration (MIC) in experiment [5] was 0.004 µM (≈ 0.00223 µg/mL); in experiment [2], 0.03 µM (≈ 0.0167 µg/mL); in experiment [6] it was > 1 µM; in experiment [3], 0.007 µM (≈ 0.0039 µg/mL). In experiment [4], the half-inhibitory concentration (IC50) was > 100 µM.
In the case of `COc1ccc(CNC(=O)c2nc3cc(C(F)(F)F)cc([N+](=O)[O-])c3s2)cc1`, the MIC in experiment [5] is 0.008 µM (≈ 0.00329 µg/mL); in experiment [2], 0.7 µM (≈ 0.288 µg/mL); in experiment [6], > 1 µM; in experiment [3] it was 0.14 µM (≈ 0.0576 µg/mL). The inhibition entry in experiment [1] is “Active”. The inhibition result in experiment [7] was “inactive”. Further, the IC50 in experiment [4] is > 100 µM.
For `N#Cc1cc([N+](=O)[O-])ccc1Oc1ccc(Cl)c(Cl)c1`, the MIC in experiment [2] was > 50 µM; in experiment [3] it was 45 µM (≈ 13.9 µg/mL). The half-inhibitory concentration (IC50) in experiment [4] is > 50 µM.
In the case of `O=C(NCc1ccc(N2CCC(c3ccc(OC(F)(F)F)cc3)CC2)cc1)c1nc2cc(C(F)(F)F)cc([N+](=O)[O-])c2s1`, the MIC is 0.125 µM (≈ 0.0781 µg/mL) in experiment [5], 0.24 µM (≈ 0.15 µg/mL) in experiment [2], > 1 µM in experiment [6] and 0.13 µM (≈ 0.0812 µg/mL) in experiment [3]. In addition, the inhibition result in experiment [1] is “Active”. For the same compound, the inhibition entry in experiment [7] was “inactive”. Further, in experiment [4], the 50% inhibitory concentration (IC50) was > 100 µM.
For `N#Cc1cc([N+](=O)[O-])ccc1N1CCC(Cc2ccccc2)CC1`, the MIC in experiment [2] is > 5 µM; in experiment [3], 2 µM (≈ 0.643 µg/mL). Further, the 50% inhibitory concentration (IC50) in experiment [4] is > 100 µM.
Take `C[C@H]1COC2(CCN(C(=O)c3sc4c([N+](=O)[O-])cc(C(F)(F)F)cc4[n+]3[O-])CC2)O1`: the minimal inhibitory concentration (MIC) in experiment [5] was 0.015 µM (≈ 0.00671 µg/mL); in experiment [2] it was 0.23 µM (≈ 0.103 µg/mL); in experiment [6], > 1 µM; in experiment [3], 0.24 µM (≈ 0.107 µg/mL). Also, the inhibition entry in experiment [1] is “Active”. Moreover, half-maximal inhibition in experiment [4] (IC50) required 79.6 µM.
With `C[C@H]1COC2(CCN(c3ccc([N+](=O)[O-])cc3C#N)CC2)O1`, the MIC is 2.4 µM (≈ 0.728 µg/mL) in experiment [2] and 2 µM (≈ 0.607 µg/mL) in experiment [3]. Also, the half-maximal inhibitory concentration (IC50) in experiment [4] is > 100 µM.
On to `COc1ccc(CNC(=O)c2sc3c([N+](=O)[O-])cc(C(F)(F)F)cc3[n+]2[O-])cc1`, for which the MIC was < 0.001 µM in experiment [5], 0.01 µM (≈ 0.00427 µg/mL) in experiment [2], > 1 µM in experiment [6] and 0.01 µM (≈ 0.00427 µg/mL) in experiment [3]. In experiment [4], this compound registered a 50% inhibitory concentration (IC50) of 76 µM.
With `O=[N+]([O-])c1cn2c(n1)OC[C@@H](OCc1ccc(OC(F)(F)F)cc1)C2` [PRETOMANID], the MIC in experiment [2] stood at 0.08 µM (≈ 0.0287 µg/mL); in experiment [3], 0.2 µM (≈ 0.0719 µg/mL). Besides, the IC50 in experiment [4] is > 100 µM.
The corresponding values for `N#Cc1cc([N+](=O)[O-])ccc1NCc1ccccn1` are > 5 µM, > 5 µM and > 100 µM.
On to `N#Cc1cc([N+](=O)[O-])ccc1NC1CC1`, for which the MIC in experiment [2] and in experiment [3] was > 5 µM throughout. In addition, the IC50 in experiment [4] was > 100 µM.
With `CCOC(=O)c1sc2c([N+](=O)[O-])cc(C(F)(F)F)cc2[n+]1[O-]`, the MIC in experiment [2] was > 5 µM; in experiment [3], 4.97 µM (≈ 1.67 µg/mL).
Regarding `N#Cc1cc([N+](=O)[O-])ccc1N1CCN(c2ccc(C(F)(F)F)cc2)CC1`, the minimal inhibitory concentration (MIC) is > 5 µM in experiment [2] and 5 µM (≈ 1.88 µg/mL) in experiment [3]. For the same compound, the half-inhibitory concentration (IC50) in experiment [4] is > 100 µM.
On the same counts, the results for `N#Cc1cc([N+](=O)[O-])ccc1NCc1cccc(F)c1` are > 5 µM, 5 µM (≈ 1.36 µg/mL) and > 100 µM.
As for `O=C(NCc1ccc(N2CCC(c3ccc(OC(F)(F)F)cc3)CC2)cc1)c1sc2c([N+](=O)[O-])cc(C(F)(F)F)cc2[n+]1[O-]`, the minimal inhibitory concentration (MIC) is 0.02 µM (≈ 0.0128 µg/mL) in experiment [5], 0.025 µM (≈ 0.016 µg/mL) in experiment [2], > 1 µM in experiment [6] and 0.07 µM (≈ 0.0448 µg/mL) in experiment [3]. In experiment [4], this compound came in with a half-maximal inhibitory concentration (IC50) of 81 µM.
As to `CC(C)(C)OC(=O)N1CCC(Oc2ccc(Nc3ccc([N+](=O)[O-])cc3C#N)cc2)CC1`, the MIC in experiment [2] was > 5 µM; in experiment [3] it was 3 µM (≈ 1.32 µg/mL). The IC50 in experiment [4] was > 100 µM.
